Measurements: PubChem BioAssay (NCI)
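These data come from cells grown in 96-well plates and exposed to compound for 48 hours at five concentrations. The concentration for full growth arrest is given as TGI.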

Assays:
Assay in all cases: DTP human tumour cell line panel, 48 h
[1] = test system: 786-0 renal
[2] = test system: A498 renal
[3] = test system: A549 NSCLC
[4] = test system: ACHN renal
[5] = test system: CAKI-1 renal
[6] = test system: COLO 205 colon
[7] = test system: DLD-1 colon
[8] = test system: DMS 114 small cell lung
[9] = test system: DMS 273 small cell lung
[10] = test system: EKVX NSCLC
[11] = test system: HCC-2998 colon
[12] = test system: HCT-116 colon
[13] = test system: HCT-15 colon
[14] = test system: HOP-18 NSCLC
[15] = test system: HOP-62 NSCLC
[16] = test system: HT29 colon
[17] = test system: IGROV1 ovarian
[18] = test system: K-562 leukemia
[19] = test system: KM12 colon
[20] = test system: KM20L2 colon
[21] = test system: LOX IMVI melanoma
[22] = test system: LXFL 529 NSCLC
[23] = test system: M14 melanoma
[24] = test system: MALME-3M melanoma
[25] = test system: MOLT-4 leukemia
[26] = test system: NCI-H226 lung
[27] = test system: NCI-H23 lung
[28] = test system: NCI-H460 lung
[29] = test system: NCI-H522 lung
[30] = test system: OVCAR-3 ovarian
[31] = test system: OVCAR-4 ovarian
[32] = test system: OVCAR-5 ovarian
[33] = test system: OVCAR-8 ovarian
[34] = test system: RPMI-8226 leukemia
[35] = test system: RXF 393 renal
[36] = test system: RXF-631 renal
[37] = test system: SF-268 CNS
[38] = test system: SF-295 CNS
[39] = test system: SF-539 CNS
[40] = test system: SK-MEL-2 melanoma
[41] = test system: SK-MEL-28 melanoma
[42] = test system: SK-MEL-5 melanoma
[43] = test system: SN12C renal
[44] = test system: SNB-19 CNS
[45] = test system: SNB-75 CNS
[46] = test system: SR leukemia
[47] = test system: SW-620 colon
[48] = test system: TK-10 renal
[49] = test system: U251 CNS
[50] = test system: UACC-257 melanoma
[51] = test system: UACC-62 melanoma
[52] = test system: UO-31 renal
[53] = test system: CCRF-CEM leukemia
[54] = test system: HL-60(TB) leukemia
[55] = test system: HOP-92 NSCLC
[56] = test system: M19-MEL melanoma
[57] = test system: SK-OV-3 ovarian
[58] = test system: SNB-78 CNS

Work on `O=C1c2ccccc2C(=O)c2nc3c(O)cccc3cc21` yielded a TGI [1] greater than 100 µM, a TGI [2] of 64.2 µM and a TGI [3] greater than 100 µM. For the same compound, the TGI [4] was greater than 100 µM, the TGI [5] was greater than 100 µM and the TGI [6] was greater than 100 µM. For the same compound, the TGI [7] was greater than 100 µM, the TGI [8] was 20.7 µM and the TGI [9] was greater than 100 µM. For the same compound, the TGI [10] was greater than 100 µM, the TGI [11] was greater than 100 µM and the TGI [12] was 19.4 µM. The TGI [13] was greater than 100 µM, the TGI [14] was greater than 100 µM and the TGI [15] was greater than 100 µM. For the same compound, the TGI [16] was 52.9 µM, the TGI [17] was greater than 100 µM and the TGI [18] was greater than 100 µM. The TGI [19] was greater than 100 µM, the TGI [20] was greater than 100 µM and the TGI [21] was greater than 100 µM. It also gave a TGI [22] greater than 100 µM, a TGI [23] of 27.9 µM and a TGI [24] greater than 100 µM. The TGI [25] was 23 µM, the TGI [26] was greater than 100 µM and the TGI [27] was greater than 100 µM. For the same compound, the TGI [28] was greater than 100 µM, the TGI [29] was 72.2 µM and the TGI [30] was 4.98 µM. For the same compound, the TGI [31] was greater than 100 µM, the TGI [32] was greater than 100 µM and the TGI [33] was greater than 100 µM. The TGI [34] was greater than 100 µM, the TGI [35] was greater than 100 µM and the TGI [36] was greater than 100 µM. The TGI [37] was greater than 100 µM, the TGI [38] was 74.1 µM and the TGI [39] was greater than 100 µM. It also gave a TGI [40] greater than 100 µM, a TGI [41] greater than 100 µM and a TGI [42] of 18.5 µM. For the same compound, the TGI [43] was greater than 100 µM, the TGI [44] was greater than 100 µM and the TGI [45] was greater than 100 µM. It also gave a TGI [46] greater than 100 µM, a TGI [47] greater than 100 µM and a TGI [48] greater than 100 µM. The TGI [49] was greater than 100 µM, the TGI [50] was 32.4 µM and the TGI [51] was greater than 100 µM. It also gave a TGI [52] greater than 100 µM.

Compound `CN(C)C(=S)/N=c1\ssc(=Nc2ccccc2)n1C` has a TGI [1] greater than 100 µM, a TGI [2] greater than 100 µM and a TGI [3] greater than 100 µM. The TGI [4] was greater than 100 µM, the TGI [5] was greater than 100 µM and the TGI [53] was greater than 100 µM. The TGI [7] was greater than 100 µM, the TGI [8] was greater than 100 µM and the TGI [9] was greater than 100 µM. It also gave a TGI [10] greater than 100 µM, a TGI [11] greater than 100 µM and a TGI [12] greater than 100 µM. The TGI [13] was greater than 100 µM, the TGI [54] was greater than 100 µM and the TGI [14] was greater than 100 µM. It also gave a TGI [15] greater than 100 µM, a TGI [55] greater than 100 µM and a TGI [16] greater than 100 µM. The TGI [17] was greater than 100 µM, the TGI [18] was greater than 100 µM and the TGI [19] was greater than 100 µM. It also gave a TGI [20] greater than 100 µM, a TGI [21] greater than 100 µM and a TGI [22] greater than 100 µM. For the same compound, the TGI [23] was greater than 100 µM, the TGI [56] was greater than 100 µM and the TGI [24] was greater than 100 µM. For the same compound, the TGI [25] was greater than 100 µM, the TGI [26] was greater than 100 µM and the TGI [27] was greater than 100 µM. The TGI [28] was greater than 100 µM, the TGI [31] was greater than 100 µM and the TGI [32] was greater than 100 µM. For the same compound, the TGI [33] was greater than 100 µM, the TGI [34] was greater than 100 µM and the TGI [35] was greater than 100 µM. The TGI [36] was greater than 100 µM, the TGI [37] was greater than 100 µM and the TGI [38] was greater than 100 µM. The TGI [39] was greater than 100 µM, the TGI [40] was greater than 100 µM and the TGI [41] was greater than 100 µM. It also gave a TGI [57] greater than 100 µM, a TGI [43] greater than 100 µM and a TGI [44] greater than 100 µM. The TGI [45] was 44.7 µM, the TGI [58] was greater than 100 µM and the TGI [46] was greater than 100 µM. For the same compound, the TGI [47] was greater than 100 µM, the TGI [48] was greater than 100 µM and the TGI [49] was greater than 100 µM. For the same compound, the TGI [50] was greater than 100 µM, the TGI [51] was greater than 100 µM and the TGI [52] was greater than 100 µM.
